O=C1c2ccccc2-c2ccccc21
solubility (mole fraction) (in DMSO, 278.15 K): 0.0418 | solubility (mole fraction) (in DMSO, 283.15 K): 0.0609 | solubility (mole fraction) (in DMSO, 288.15 K): 0.0728 | solubility (mole fraction) (in DMSO, 293.15 K): 0.0855 | solubility (mole fraction) (in DMSO, 298.15 K): 0.112 | solubility (mole fraction) (in DMSO, 303.15 K): 0.142 | solubility (mole fraction) (in DMSO, 308.15 K): 0.178 | solubility (mole fraction) (in DMSO, 313.15 K): 0.216 | solubility (mole fraction) (in DMSO, 318.15 K): 0.306 | solubility (mole fraction) (in acetonitrile, 278.15 K): 0.0209 | solubility (mole fraction) (in acetonitrile, 283.15 K): 0.0311 | solubility (mole fraction) (in acetonitrile, 288.15 K): 0.0481 | solubility (mole fraction) (in acetonitrile, 293.15 K): 0.0657 | solubility (mole fraction) (in acetonitrile, 298.15 K): 0.102 | solubility (mole fraction) (in acetonitrile, 303.15 K): 0.134 | solubility (mole fraction) (in acetonitrile, 308.15 K): 0.201 | solubility (mole fraction) (in acetonitrile, 313.15 K): 0.281 | solubility (mole fraction) (in acetonitrile, 318.15 K): 0.358 | solubility (mole fraction) (in ethanol, 278.15 K): 0.0127 | solubility (mole fraction) (in ethanol, 283.15 K): 0.014 | solubility (mole fraction) (in ethanol, 288.15 K): 0.0164 | solubility (mole fraction) (in ethanol, 293.15 K): 0.0222 | solubility (mole fraction) (in ethanol, 298.15 K): 0.0267 | solubility (mole fraction) (in ethanol, 303.15 K): 0.0307 | solubility (mole fraction) (in ethanol, 308.15 K): 0.0428 | solubility (mole fraction) (in ethanol, 313.15 K): 0.0506 | solubility (mole fraction) (in ethanol, 318.15 K): 0.0693 | solubility (mole fraction) (in ethyl acetate, 278.15 K): 0.105 | solubility (mole fraction) (in ethyl acetate, 283.15 K): 0.137 | solubility (mole fraction) (in ethyl acetate, 288.15 K): 0.142 | solubility (mole fraction) (in ethyl acetate, 293.15 K): 0.172 | solubility (mole fraction) (in ethyl acetate, 298.15 K): 0.225 | solubility (mole fraction) (in ethyl acetate, 303.15 K): 0.243 | solubility (mole fraction) (in ethyl acetate, 308.15 K): 0.284 | solubility (mole fraction) (in ethyl acetate, 313.15 K): 0.35 | solubility (mole fraction) (in ethyl acetate, 318.15 K): 0.371 | solubility (mole fraction) (in ethyl formate, 278.15 K): 0.0907 | solubility (mole fraction) (in ethyl formate, 283.15 K): 0.111 | solubility (mole fraction) (in ethyl formate, 288.15 K): 0.14 | solubility (mole fraction) (in ethyl formate, 293.15 K): 0.163 | solubility (mole fraction) (in ethyl formate, 298.15 K): 0.22 | solubility (mole fraction) (in ethyl formate, 303.15 K): 0.25 | solubility (mole fraction) (in ethyl formate, 308.15 K): 0.32 | solubility (mole fraction) (in ethyl formate, 313.15 K): 0.366 | solubility (mole fraction) (in ethyl formate, 318.15 K): 0.409 | solubility (mole fraction) (in isobutanol, 278.15 K): 0.0156 | solubility (mole fraction) (in isobutanol, 283.15 K): 0.0207 | solubility (mole fraction) (in isobutanol, 288.15 K): 0.0241 | solubility (mole fraction) (in isobutanol, 293.15 K): 0.0305 | solubility (mole fraction) (in isobutanol, 298.15 K): 0.0387 | solubility (mole fraction) (in isobutanol, 303.15 K): 0.0504 | solubility (mole fraction) (in isobutanol, 308.15 K): 0.0622 | solubility (mole fraction) (in isobutanol, 313.15 K): 0.0745 | solubility (mole fraction) (in isobutanol, 318.15 K): 0.0963 | solubility (mole fraction) (in isopropanol, 278.15 K): 0.0087 | solubility (mole fraction) (in isopropanol, 283.15 K): 0.0119 | solubility (mole fraction) (in isopropanol, 288.15 K): 0.0152 | solubility (mole fraction) (in isopropanol, 293.15 K): 0.0217 | solubility (mole fraction) (in isopropanol, 298.15 K): 0.0273 | solubility (mole fraction) (in isopropanol, 303.15 K): 0.0384 | solubility (mole fraction) (in isopropanol, 308.15 K): 0.0472 | solubility (mole fraction) (in isopropanol, 313.15 K): 0.0592 | solubility (mole fraction) (in isopropanol, 318.15 K): 0.0801 | solubility (mole fraction) (in methanol, 278.15 K): 0.0037 | solubility (mole fraction) (in methanol, 283.15 K): 0.0044 | solubility (mole fraction) (in methanol, 288.15 K): 0.0059 | solubility (mole fraction) (in methanol, 293.15 K): 0.0084 | solubility (mole fraction) (in methanol, 298.15 K): 0.012 | solubility (mole fraction) (in methanol, 303.15 K): 0.0154 | solubility (mole fraction) (in methanol, 308.15 K): 0.0199 | solubility (mole fraction) (in methanol, 313.15 K): 0.0288 | solubility (mole fraction) (in methanol, 318.15 K): 0.0401 | solubility (mole fraction) (in n-butanol, 278.15 K): 0.0119 | solubility (mole fraction) (in n-butanol, 283.15 K): 0.0142 | solubility (mole fraction) (in n-butanol, 288.15 K): 0.0182 | solubility (mole fraction) (in n-butanol, 293.15 K): 0.0286 | solubility (mole fraction) (in n-butanol, 298.15 K): 0.0371 | solubility (mole fraction) (in n-butanol, 303.15 K): 0.0461 | solubility (mole fraction) (in n-butanol, 308.15 K): 0.0631 | solubility (mole fraction) (in n-butanol, 313.15 K): 0.0826 | solubility (mole fraction) (in n-butanol, 318.15 K): 0.113 | solubility (mole fraction) (in n-hexane, 278.15 K): 0.0038 | solubility (mole fraction) (in n-hexane, 283.15 K): 0.0047 | solubility (mole fraction) (in n-hexane, 288.15 K): 0.0054 | solubility (mole fraction) (in n-hexane, 293.15 K): 0.007 | solubility (mole fraction) (in n-hexane, 298.15 K): 0.0097 | solubility (mole fraction) (in n-hexane, 303.15 K): 0.0132 | solubility (mole fraction) (in n-hexane, 308.15 K): 0.0169 | solubility (mole fraction) (in n-hexane, 313.15 K): 0.0227 | solubility (mole fraction) (in n-hexane, 318.15 K): 0.0304 | solubility (mole fraction) (in n-propanol, 278.15 K): 0.0143 | solubility (mole fraction) (in n-propanol, 283.15 K): 0.0169 | solubility (mole fraction) (in n-propanol, 288.15 K): 0.0214 | solubility (mole fraction) (in n-propanol, 293.15 K): 0.0294 | solubility (mole fraction) (in n-propanol, 298.15 K): 0.0381 | solubility (mole fraction) (in n-propanol, 303.15 K): 0.0482 | solubility (mole fraction) (in n-propanol, 308.15 K): 0.0653 | solubility (mole fraction) (in n-propanol, 313.15 K): 0.083 | solubility (mole fraction) (in n-propanol, 318.15 K): 0.0997

Source: BigSolDB 2.1
